Reference: EP2739618B1, “QUINAZOLINE COMPOUNDS AS SERINE/THREONINE KINASE INHIBITORS” (Array Biopharma, Inc., priority 2011, dated 2013)

Assays:
[1] = test system: PMA-stimulated P90RSK(Ser380) phosphorylation; experiment: Cellular P90RSK(Ser380) Phosphorylation Assay; type: cell-based; details: Homo sapiens; HepG2 cells, 1.5 h compound incubation, PMA 100ng/mL 30 min, normalized to GAPDH signal; single assay or mean of multiple assays
Protocol: Cellular P90RSK(Ser380) Phosphorylation Assay
Inhibition of PMA-stimulated P90RSK(Ser380) phosphorylation was determined by the following in vitro cellular mechanistic assay, which comprises incubating cells with a compound for 1.5 h and quantifying fluorescent pP90RSK(Ser380) signal on fixed cells and normalizing to GAPDH signal.
Materials and Methods: HepG2 cells were obtained from ATCC and grown in DMEM supplemented with 10% fetal bovine serum. Cells were plated in 96-well plates at 35,000 cells/well and allowed to attach overnight at 37 °C/5% CO2. Diluted compounds were then added at a final concentration of 0.5% DMSO. After 1.5 h compound incubation, cells were stimulated with the addition of PMA (phorbol 12-myristate 13-acetate) at a final concentration of 100ng/mL; the PMA stimulation was a 30-min incubation at 37 °C/5% CO2. After the 30-minute PMA stimulation, cells were washed with PBS and fixed in 3.7% formaldehyde in PBS at room temperature for 15-20 min. This was followed by another wash in PBS and then permeabilization in 100% MeOH at room temperature for 10-15 min. Following the permeabilization incubation, cells were washed in PBS/0.05% Tween-20, followed by a block in Odyssey blocking buffer (LI-COR Biosciences) for at least 1 hour. Antibodies to phosphorylated P90RSK(Ser380) (Cell Signaling #9335, rabbit monoclonal) and GAPDH (Fitzgerald 10R-G109a, mouse monoclonal) were added to the cells and incubated overnight at 4 °C. pP90RSK(Ser380) antibody was used at a 1:250 dilution; GAPDH was used at a 1:10,000 dilution. After washing with PBS/0.05% Tween-20, the cells were incubated with fluorescently-labeled secondary antibodies (Anti-rabbit-Alexa Flour680, Invitrogen Cat#A21109; Anti-mouse-IRDye800CW, Rockland Inc. Cat#610-131-121) for 1 h. Both secondary antibodies were used at a 1:1000 dilution. Cells were then washed and analyzed for fluorescence at both wavelengths using the Odyssey Infrared Imaging System (LI-COR Biosciences). Phosphorylated P90RSK(Ser380) signal was normalized to GAPDH signal. Representative data is in TABLE III (infra). The reported IC50 may be from a single assay or the mean of multiple assays.

HCT116 cells = experiment: Cell Proliferation/Viability Assay (Cell Titer-Blue); type: cell-based; details: Homo sapiens, HCT-116, 3-day (72-hour) incubation, single assay or mean of multiple assays
Protocol: Cell Proliferation/Viability Assay
Viable cells after a 3-day (72-hour) incubation with ERK compounds were quantified using the Cell Titer-Blue Cell Viability Assay from Promega.
Materials and Methods: HCT116 cells were plated in 96 well micro-plates at a density of 1,000 cells/well. The cells were allowed to attach to micro-plate overnight at 37 °C/5% CO2. After overnight attachment, diluted compounds were then added to the cells at a final concentration of 0.5% DMSO. After 3 days (72 hours) at 37 °C/5% CO2, the number of viable cells was determined using the Cell Titer-Blue Cell Viability Assay from Promega. Briefly, Cell Titer-Blue reagent were added to the cells and incubated for 1 hour. Fluorescence (560nmexcitation/590nmemission) was then read using a fluorescence micro-plate reader. Background from high concentration Erk-inhibited wells was subtracted. Representative data is in TABLE III (infra). The reported IC50 may be from a single assay or the mean of multiple assays.

[2] = molecular target: T1, human ERK-2 (Mitogen Activated Kinase 1) (Homo sapiens, UniProt P28482); experiment: ERK-2 Enzymatic Assay; type: biochemical; details: 5nM ERK-2 enzyme, 25µM ATP, S/T17 peptide substrate, single assay or mean of multiple assays
T1 construct: N-terminal 6-His fusion protein in E. coli and corresponding to aa 8-360; 6-His (N); made in house; host or cells: E. coli
In short: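 Values are single or averaged runs. Reactions used E. coli-expressed 6-His ERK-2 aa 8-360 and Omnia S/T17 peptide substrate at ambient temperature.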

T1 sequence (P28482 8-360): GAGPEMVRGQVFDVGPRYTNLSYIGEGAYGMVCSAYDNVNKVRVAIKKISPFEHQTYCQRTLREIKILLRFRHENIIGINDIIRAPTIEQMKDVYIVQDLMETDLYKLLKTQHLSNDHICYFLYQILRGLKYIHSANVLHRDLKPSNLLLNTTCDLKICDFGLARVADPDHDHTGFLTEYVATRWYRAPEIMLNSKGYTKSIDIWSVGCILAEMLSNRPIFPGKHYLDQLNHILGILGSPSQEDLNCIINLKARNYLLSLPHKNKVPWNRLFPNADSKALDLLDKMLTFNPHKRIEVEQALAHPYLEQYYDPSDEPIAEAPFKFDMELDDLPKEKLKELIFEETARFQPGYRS

SMILES | IC50 [1] | IC50 (HCT116 cells) | IC50 ([2]; TABLE I) | IC50 ([2]; TABLE II)
CC(C)Nc1ncc2ccc(C(=O)N[C@H](c3ccc(C(F)(F)F)c(F)c3)[C@@H]3CCCN3)cc2n1 (stereo in doubt) [Compound I-5, 2-isopropylamino-quinazoline-7-carboxylic acid [(S)-(3-fluoro-4-trifluoromethyl-phenyl)-(R)-pyrrolidin-2-yl-methyl]-amide] | 11.7 nM | 298 nM | 2.3 nM | 
C[C@@H](CO)Nc1ncc2ccc(C(=O)N[C@H](c3ccc(Cl)c(F)c3)c3cnn(C)c3)cc2n1 (stereo in doubt) [Compound I-14, 2-((S)-2-hydroxy-1-methyl-ethylamino)-quinazoline-7-carboxylic acid [(R)-(4-chloro-3-fluoro-phenyl)-(1-methyl-1H-pyrazol-4-yl)-methyl]-amide] | 59.8 nM | 875 nM |  | 
C[C@@H](CO)Nc1ncc2ccc(C(=O)NC(c3ccc(Cl)c(F)c3)c3cnn(C)c3)cc2n1 (stereo partly drawn) [Compound I-1, N-((4-chloro-3-fluorophenyl)(1-methyl-1H-pyrazol-4-yl)methyl)-2-((S)-1-hydroxypropan-2-ylamino)quinazoline-7-carboxamide] | 75.5 nM | 2400 nM |  | 
Cn1cc(C(NC(=O)c2ccc3cnc(NC4CCOCC4)nc3c2)c2ccc(Cl)c(F)c2)cn1 (stereo not drawn) [Compound I-2, 2-(Tetrahydro-pyran-4-ylamino)-quinazoline-7-carboxylic acid [(4-chloro-3-fluoro-phenyl)-(1-methyl-1H-pyrazol-4-yl)-methyl]-amide] | 22.7 nM | 851 nM |  | 
O=C(N[C@@H](c1ccc(C(F)(F)F)c(F)c1)[C@@H]1CCCN1)c1ccc2cnc(NC3CCOCC3)nc2c1 [Compound I-3, 2-(Tetrahydropyran-4-ylamino)-quinazoline-7-carboxylic acid [(S)-(3-fluoro-4-tnfluoromethyl-phenyl)-(S)-pyrrolidin-2-yl-methyl]-amide] | 46 nM | 272 nM | 2.1 nM | 
Cn1ccc([C@@H](NC(=O)c2cc(F)c3cnc(NC4CCOCC4)nc3c2)c2ccc(Cl)c(F)c2)n1 [Compound I-22, (S)-N-((4-chloro-3-fluorophenyl)(1-methyl-1H-pyrazol-3-yl)methyl)-5-fluoro-2-(tetrahydro-2H-pyran-4-ylamino)quinazoline-7-carboxamide] | 23.5 nM | 274 nM | 1.4 nM | 
Cn1cc([C@@H](NC(=O)c2ccc3cnc(N[C@H]4CCOC[C@H]4F)nc3c2)c2ccc(Cl)c(F)c2)cn1 [Compound I-28, 2-((3S,4S)-3-fluoro-tetrahydropyran-4-ylamino)-quinazoline-7-carboxylic acid [(S)-(4-chloro-3-fluoro-phenyl)-(1-methyl-1H-pyrazol-4-yl)-methyl]-amide] | 87.4 nM | 2100 nM | 2.5 nM | 
O=C(NC(c1ccc(Cl)c(F)c1)c1ncno1)c1ccc2cnc(NC3CCOCC3)nc2c1 (stereo not drawn) [Compound I-34, 2-(tetrahydro-pyran-4-ylamino)-quinazoline-7-carboxylic acid [(4-chloro-3-fluoro-phenyl)-[1,2,4]oxadiazol-5-yl-methyl]-amide] | 79.1 nM | 5000 nM | 3.6 nM | 
C[C@H](Nc1ncc2ccc(C(=O)N[C@@H](c3ccc(Cl)c(F)c3)[C@@H]3CCCN3)cc2n1)C(F)(F)F [Compound I-40, 2-((S)-2,2,2-trifluoro-1-methyl-ethylamino)-quinazoline-7-carboxylic acid [(S)-(4-chloro-3-fluoro-phenyl)-(S)-pyrrolidin-2-yl-methyl]-amide] | 2900 nM |  | 7.3 nM | 
Cn1cc([C@@H](NC(=O)c2ccc3cnc(NC4CCOCC4)nc3c2)c2ccc(OC(F)F)cc2)cn1 [Compound I-41, 2-(tetrahydropyran-4-ylamino)-quinazoline-7-carboxylic acid [(S)-(4-difluoromethoxy-phenyl)-(1-methyl-1H-pyrazol-4-yl)-methyl]-amide] | 115 nM |  | 0.55 nM | 
Cn1cc([C@@H](NC(=O)c2ccc3cnc(N[C@@H]4CCO[C@H](CO)C4)nc3c2)c2ccc(Cl)c(F)c2)cn1 [Compound I-47, N-((S)-(4-chloro-3-fluorophenyl)(1-methyl-1H-pyrazol-4-yl)methyl)-2-((2S,4R)-2-(hydroxymethyl)tetrahydro-2H-pyran-4-ylamino)quinazoline-7-carboxamide] | 29 nM |  | 1.4 nM | 
COc1ccc([C@H](NC(=O)c2cc(F)c3cnc(NCC4CC4)nc3c2)c2cnn(C)c2)cc1F [Compound I-60, 2-(Cyclopropylmethyl-amino)-5-fluoro-quinazoline-7-carboxylic acid [(S)-(3-fluoro-4-methoxy-phenyl)-(1-methyl-1H-pyrazol-4-yl)-methyl]-amide] | 334 nM |  | 6 nM | 
COc1ccc([C@H](NC(=O)c2cc(F)c3cnc(N[C@@H]4CCOC4)nc3c2)c2cnn(C)c2)cc1F [Compound I-61, 5-Fluoro-N-((S)-(3-fluoro-4-methoxyphenyl)(1-methyl-1H-pyrazol-4-yl)methyl)-2-((R)-tetrahydrofuran-3-ylamino)quinazoline-7-carboxamide] | 66 nM |  | 2 nM | 
COc1ccc([C@H](NC(=O)c2cc(F)c3cnc(NC4(C)COC4)nc3c2)c2cnn(C)c2)cc1F [Compound I-64, 5-Fluoro-2-(3-methyl-oxetan-3-ylamino)-quinazoline-7-carboxylic acid [(S)-(3-fluoro-4-methoxy-phenyl)-(1-methyl-1H-pyrazol-4-yl)-methyl]-amide] | 978 nM |  | 6 nM | 
COc1ccc(C(NC(=O)c2ccc3cnc(NC4CCOCC4)nc3c2)c2cnn(CCO)c2)cc1F (stereo not drawn) [Compound I-67, N-((3-fluoro-4-methoxyphenyl) (1-(2-hydroxyethyl)-1H-pyrazol-4-yl)methyl)-2-(tetrahydro-2H-pyran-4-ylamino) quinazoline-7-carboxamide] | 165 nM |  | 5 nM | 
COc1ccc([C@H](NC(=O)c2ccc3cnc(NC4CSC4)nc3c2)c2cnn(C)c2)cc1F [II-5] | 50.5 nM |  |  | 13 nM
COc1ccc([C@H](NC(=O)c2cc(F)c3cnc(N[C@H]4CC[C@H](O)CC4)nc3c2)c2cnn(C)c2)cc1F [II-13] | 84.4 nM |  |  | 
COc1ccc([C@H](NC(=O)c2ccc3cnc(Nc4cc(C)nn4C)nc3c2)c2cnn(C)c2)cc1F [II-18] | 364 nM |  |  | 2.1 nM
Cn1cc([C@@H](NC(=O)c2ccc3cnc(Nc4ccnn4C)nc3c2)c2ccc(Cl)c(F)c2)cn1 [II-25] | 19.9 nM |  |  | 3.1 nM
COc1ccc([C@H](NC(=O)c2ccc3cnc(Nc4ccnn4C)nc3c2)c2ccnn2C)cc1F [II-38] | 38 nM |  |  | 2.9 nM
COc1ccc([C@H](NC(=O)c2cc(F)c3cnc(NC4CCOCC4)nc3c2)c2c[nH]c(C)n2)cc1F [II-51] |  |  |  | 164 nM
COc1ccc([C@H](NC(=O)c2cc(F)c3cnc(NC4CCOCC4)nc3c2)c2nccn2C)cc1F [II-52] |  |  |  | 1.9 nM
COc1ccc([C@H](NC(=O)c2cc(F)c3cnc(Nc4ccnn4C)nc3c2)c2cncn2C)cc1F [II-53] |  |  |  | 1.5 nM
COc1ccc([C@H](NC(=O)c2cc(F)c3cnc(Nc4ccnn4C)nc3c2)c2nccn2C)cc1F [II-54] |  |  |  | 8.5 nM
